Assay results published in patent US8372383B2, “Agent for inducing hair growth containing extracts of saw palmetto and swertia” (Medidermis Ltd, priority 1999, dated 2013).

Key:
hair loss [1] = conditions: at the more effective higher concentrations; cited from earlier work
Mice (males, C3H type) = experiment: Hair growth model in mice in the resting phase of the hair cycle (weight of hair after 18 days of topical application); type: in vivo
Description: Data was objectively assessed by the experiments given hereafter in an already established hair growth model in mice [Inaoka Y, et al. 1994, 42:530-3.], employing treatment versus controls. As a positive control, minoxidil 5% was used. […] The present invention thus fulfills the need for a natural combination of plant extracts and provides the advantages of unanimous use and excellent efficacy. In mice, the hair growth and effluvium are a continuous cyclic process. […] Therefore, any hair growth during this period is non-physiologic and induced by external agents. […] Any research related to this model should employ minoxidil as the “golden standard” and as an essential positive control. Mice (males, C3H type), which were in the resting phase in their hair cycle, i.e. at 7 weeks of age, were employed in these experiments. The skin of the back of the mice was subjected to a complete hair cut by an electric razor, with areas of approximately 2.5×4 cm. Different solutions, as will be further described, (100 μL/day) were applied with a syringe 6 times a week for 18 days, and the skin was further massaged. At the end of the experiment, the animals were sacrificed and the skin of the back was excised. The excised skin was fixed on frame consisting of a metal disc with a radius of 0.9 cm. Hairs were cut by a scalpel, collected and weighted. […] Data was calculated by SigmaStat version 2.0, Jandel.

hair loss [2] = conditions: after at least one-year daily uptake; 39% hair growth in control group; cited from earlier work

SMILES | side effects (hair loss [1]) | Weight Of Hair (Mice (males, C3H type); C3H male mice, 7 weeks old, 100 μL/day topically 6 times a week for 18 days, hair from excised back skin, disc of radius 0.9 cm, control (placebo) 2.52 mg) [mg] | increase of hair weight as compared to control mice (Mice (males, C3H type); C3H mice, topical, 18 days, versus placebo-treated control) | success (hair growth) (hair loss [2]) [%]
Nc1cc(N2CCCCC2)nc(N)[n+]1[O-] [Minoxidil 5.0%, minoxidil] | may cause hypotension or hypertrichosis | 4.07 | about 65% | 
CC(C)(C)NC(=O)[C@H]1CC[C@H]2[C@@H]3CC[C@H]4NC(=O)C=C[C@]4(C)[C@H]3CC[C@]12C [Finasteride] |  |  |  | 60
